Data as given in PMC6576746, “Rational discovery of dual-indication multi-target PDE/Kinase inhibitor for precision anti-cancer therapy using structural systems pharmacology” (PLoS Computational Biology, 2019).

Key:
Experiment in all cases: cells
Design in all cases: species or system panel of human cancer cell lines; Eurofins OncoPanel proliferation; nuclei count by high-content fluorescence imaging, 10-point dose response
A172 = conditions: Homo sapiens, A 172, 72 h, cell count, 3 days
Protocol: (§1) OncoPanel cancer cell proliferation assay was performed by Eurofins Panlabs, Inc. (Missouri, USA). Cancer cells were grown in RPMI 1640, 10% FBS, 2 mM L-alanyl-L-glutamine, 1 mM Na pyruvate, or a special medium. Cells were seeded into 384-well plates and incubated in a humidified atmosphere of 5% CO2 at 37°C. Compounds were added the day following cell seeding. At the same time, a time zero untreated cell plate was generated. After a 3-day incubation period, cells were fixed and stained to allow fluorescence imaging of nuclei. Levosimendan was serially diluted in half-log steps from 100 μM and assayed over 10 concentrations with a maximum assay concentration of 0.1% DMSO. Automated fluorescence microscopy was carried out using a Molecular Devices ImageXpress Micro XL high-content imager, and images were collected with a 4X objective. 16-bit TIFF images were acquired and analyzed with MetaXpress 5.1.0.41 software. Cell count EC50 is the test concentration at the curve inflection point (parameter C), or half the effective response. IC50 is the test compound concentration at 50% of the maximum possible response. GI50 is the concentration needed to reduce the observed growth by half (midway between the relative cell count at the curve maximum and at the time of compound addition). Activity area is an estimate of the integrated area above the response curve. Activity area values range from 0–10, where a value of zero indicates no inhibition of proliferation at all concentrations, and a value of 10 indicates complete inhibition of proliferation at all concentrations.

CAL-62 = conditions: Homo sapiens, CAL-62, 72 h, cell count, 3 days
Protocol: as §1

SW954 = conditions: Homo sapiens, SW 954, 72 h, cell count, 3 days
Protocol: as §1

Hs 936.T(C1) = conditions: 72 h, cell count, 3 days
Protocol: as §1

647-V = conditions: Homo sapiens, 647-V, 72 h, cell count, 3 days
Protocol: as §1

SW620 = conditions: Homo sapiens, SW-620, 72 h, cell count, 3 days
Protocol: as §1

RD = conditions: Homo sapiens, RD, 72 h, cell count, 3 days
Protocol: as §1

LS411N = conditions: Homo sapiens, LS-411N, 72 h, cell count, 3 days
Protocol: as §1

CaOV3 = conditions: Homo sapiens, Caov-3, 72 h, cell count, 3 days
Protocol: as §1

SNU-423 = conditions: Homo sapiens, SNU-423, 72 h, cell count, 3 days
Protocol: as §1

MES-SA = conditions: Homo sapiens, MES-SA, 72 h, cell count, 3 days
Protocol: as §1

DB = conditions: Homo sapiens, DB, 72 h, cell count, 3 days
Protocol: as §1

BCP-1 = conditions: BCP-1, 72 h, cell count, 3 days
Protocol: as §1

SiHa = conditions: Homo sapiens, SiHa, 72 h, cell count, 3 days
Protocol: as §1

[1] = 50% of maximum possible response

With `C[C@@H]1CC(=O)NN=C1c1ccc(NN=C(C#N)C#N)cc1` [levosimendan] the IC50 (A172; [1]) was 55.8 µM, the GI50 (A172; corrected for time zero) was 44.8 µM and the EC50 (A172; curve inflection point) was 55.8 µM. For the same compound, the IC50 (CAL-62; [1]) was 12.3 µM, the GI50 (CAL-62; corrected for time zero) was 11.4 µM and the EC50 (CAL-62; curve inflection point) was 12.1 µM. The IC50 (SW954; [1]) was 22.5 µM, the GI50 (SW954; corrected for time zero) was 20.5 µM and the EC50 (SW954; curve inflection point) was 22 µM. The IC50 (Hs 936.T(C1); [1]) was greater than 100 µM, the GI50 (Hs 936.T(C1); corrected for time zero) was greater than 100 µM and the EC50 (Hs 936.T(C1); curve inflection point) was greater than 100 µM. The IC50 (647-V; [1]) was 13.7 µM, the GI50 (647-V; corrected for time zero) was 8.64 µM and the EC50 (647-V; curve inflection point) was 13.7 µM. It also gave an IC50 (SW620; [1]) of 19.7 µM, a GI50 (SW620; corrected for time zero) of 14.9 µM and an EC50 (SW620; curve inflection point) of 18.7 µM. The IC50 (RD; [1]) was 20.6 µM, the GI50 (RD; corrected for time zero) was 15.7 µM and the EC50 (RD; curve inflection point) was 20.6 µM. For the same compound, the IC50 (LS411N; [1]) was greater than 100 µM, the GI50 (LS411N; corrected for time zero) was greater than 100 µM and the EC50 (LS411N; curve inflection point) was greater than 100 µM. It also gave an IC50 (CaOV3; [1]) of 37.4 µM, a GI50 (CaOV3; corrected for time zero) of 21.4 µM and an EC50 (CaOV3; curve inflection point) of 37.4 µM. It also gave an IC50 (SNU-423; [1]) of 19.2 µM, a GI50 (SNU-423; corrected for time zero) of 16.5 µM and an EC50 (SNU-423; curve inflection point) of 14.8 µM. For the same compound, the IC50 (MES-SA; [1]) was 15.6 µM, the GI50 (MES-SA; corrected for time zero) was 13.7 µM and the EC50 (MES-SA; curve inflection point) was 15.6 µM. The IC50 (DB; [1]) was 17.6 µM, the GI50 (DB; corrected for time zero) was 14.5 µM and the EC50 (DB; curve inflection point) was 17.6 µM. The IC50 (BCP-1; [1]) was 12.6 µM, the GI50 (BCP-1; corrected for time zero) was 8.13 µM and the EC50 (BCP-1; curve inflection point) was 12.6 µM. The IC50 (SiHa; [1]) was greater than 100 µM, the GI50 (SiHa; corrected for time zero) was 60 µM and the EC50 (SiHa; curve inflection point) was 41.2 µM.
